Measurements: PubChem BioAssay AID1963867 (Molecular Pharmacology Branch, DTP, NCI, 2024)
pIC50: −log10 of the molar value.

Tested on: KRAS-mutant PDC tumor spheroid with HUVEC/MSC, viability
Assay: Anticancer human tumor 327498-153-R-J2-PDC patient-derived uterine carcinosarcoma cell line growth inhibition [KRAS2]
Conditions: for pIC50: curve of first compound; for viability, T/C: stronger effect = lower value
In short: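 KRAS-mutant tumor cells were grown as spheroids with HUVEC endothelial cells and human MSCs as stroma. Targeted agents were tested alone and with KRAS pathway inhibitors. Doses started at or near clinical Cmax, or 10 microM, descending half-log.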
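Also: spheroids exposed to agents for seven days before reading.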
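For viability, T/C in this document: 100% = DMSO vehicle wells so lower means fewer viable cells.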

Cn1nccc1Nc1nccc(-c2cc3c(s2)C(C)(C)N(CCN2CCOCC2)C3=O)n1 + C=CC(=O)N1CCN(c2nc(=O)n(-c3c(C)ccnc3C(C)C)c3nc(-c4c(O)cccc4F)c(F)cc23)C(C)C1
pIC50 (second compound 0.1 µM): 5.85 | pIC50 (second compound 0.316 µM): 5.65 | pIC50 (second compound 1 µM): 5.51 | pIC50 (second compound 3.16 µM): 6.03 | pIC50 (second compound 10 µM): > 7.50 | viability, T/C (second compound 0.1 µM, first compound 0.0316 µM): 60.7% | viability, T/C (second compound 0.1 µM, first compound 0.1 µM): 61.5% | viability, T/C (second compound 0.1 µM, first compound 0.316 µM): 55.8% | viability, T/C (second compound 0.1 µM, first compound 1 µM): 54.8% | viability, T/C (second compound 0.1 µM, first compound 3.16 µM): 41.8% | viability, T/C (second compound 0.1 µM, first compound 10 µM): 36.5% | viability, T/C (second compound 0.316 µM, first compound 0.0316 µM): 55.7% | viability, T/C (second compound 0.316 µM, first compound 0.1 µM): 63.8% | viability, T/C (second compound 0.316 µM, first compound 0.316 µM): 55.1% | viability, T/C (second compound 0.316 µM, first compound 1 µM): 54% | viability, T/C (second compound 0.316 µM, first compound 3.16 µM): 46.6% | viability, T/C (second compound 0.316 µM, first compound 10 µM): 42.2% | viability, T/C (second compound 1 µM, first compound 0.0316 µM): 63% | viability, T/C (second compound 1 µM, first compound 0.1 µM): 56.3% | viability, T/C (second compound 1 µM, first compound 0.316 µM): 60.9% | viability, T/C (second compound 1 µM, first compound 1 µM): 55.2% | viability, T/C (second compound 1 µM, first compound 3.16 µM): 49.1% | viability, T/C (second compound 1 µM, first compound 10 µM): 42.4% | viability, T/C (second compound 3.16 µM, first compound 0.0316 µM): 60.5% | viability, T/C (second compound 3.16 µM, first compound 0.1 µM): 59.3% | viability, T/C (second compound 3.16 µM, first compound 0.316 µM): 50.8% | viability, T/C (second compound 3.16 µM, first compound 1 µM): 49.6% | viability, T/C (second compound 3.16 µM, first compound 3.16 µM): 48.3% | viability, T/C (second compound 3.16 µM, first compound 10 µM): 40.5% | viability, T/C (second compound 10 µM, first compound 0.0316 µM): 49.9% | viability, T/C (second compound 10 µM, first compound 0.1 µM): 47.8% | viability, T/C (second compound 10 µM, first compound 0.316 µM): 45.3% | viability, T/C (second compound 10 µM, first compound 1 µM): 37.7% | viability, T/C (second compound 10 µM, first compound 3.16 µM): 41.1% | viability, T/C (second compound 10 µM, first compound 10 µM): 29.3%
